Results: patent US11472766B2, “Lipid nanoparticle composition” (Suzhou Abogen Biosciences Co., Ltd., priority 2020, dated 2022)

Assays:
[1] = Lipid nanoparticle size by dynamic light scattering (Malvern Zetasizer Nano ZS); assay type: physicochemical; conditions: LNP: cationic lipid/DSPC/cholesterol/PEG-lipid 50:10:38.5:1.5, hEPO mRNA; Table 3
Description: (§1) Briefly, a cationic lipid provided herein, DSPC, cholesterol, and PEG-lipid were solubilized in ethanol at a molar ratio of 50:10:38.5:1.5, and mRNA were diluted in 10 to 50 mM citrate buffer, pH=4. The LNPs were prepared at a total lipid to mRNA weight ratio of approximately 10:1 to 30:1 by mixing the ethanolic lipid solution with the aqueous mRNA solution at a volume ratio of 1:3 using a microfluidic apparatus, total flow rate ranging from 9-30 mL/min. Ethanol were thereby removed and replaced by DPBS using dialysis. Finally, the lipid nanoparticles were filtered through a 0.2 μm sterile filter.
(§2) Lipid nanoparticle size were determined by dynamic light scattering using a Malvern Zetasizer Nano ZS (Malvern UK) using a 173° backscatter detection mode. The encapsulation efficiency of lipid nanoparticles were determined using a Quant-it Ribogreen RNA quantification assay kit (Thermo Fisher Scientific, UK) according to the manufacturer's instructions.

[2] = Encapsulation efficiency of lipid nanoparticles (Quant-it Ribogreen RNA quantification assay); assay type: physicochemical; conditions: LNP encapsulating hEPO mRNA; Table 3
Description: as §1, §2

[3] = tested on: human erythropoietin (hEPO) mRNA; experiment: Animal study: hEPO expression after tail vein injection of LNPs encapsulating hEPO mRNA (serum ELISA); assay type: in vivo; conditions: hEPO level, female ICR mice, 0.5 mg/kg, 6 hours post administration, class symbols, Table 3
Description: Lipid nanoparticles comprising compounds 1-10 encapsulating human erythropoietin (hEPO) mRNA were systemically administered to 6-8 week old female ICR mice (Xipuer-Bikai, Shanghai) at 0.5 mg/kg dose by tail vein injection and mice blood were sampled at specific time points (e.g., 6 hours) post administration. In addition to the aforementioned tested groups, lipid nanoparticles comprising dilinoleylmethyl-4-dimethylaminobutyrate (DLin-MC3-DMA, usually abbreviated to MC3) encapsulating hEPO mRNA were similarly administered at the same dose to age and gender comparative groups of mice as a positive control.
Mice were euthanized by CO2 overdoses after the last sampling time point. Serum were separated from total blood by centrifugation at 5000 g for 10 minutes at 4° C., snap-frozen and stored at −80° C. for analysis. ELSA assay were carried out using a commercial kit (DEP00, R&D systems) according to manufacturer's instructions.
Characteristics of tested lipid nanoparticles, including hEPO expression levels (μg/ml) measured from the tested group are listed the tables below and plotted in FIG. 2.

[4] = Apparent pKa of LNP formulations (TNS fluorescence assay); conditions: LNP cationic lipid/DSPC/cholesterol/DMG-PEG 50/10/38.5/1.5 mol %, Table 3
Description: The apparent pKa of each formulation was determined using an assay based on fluorescence of 2-(p-toluidino)-6-napthalene sulfonic acid (TNS). LNP formulations comprising of cationic lipid/DSPC/cholesterol/DMG-PEG (50/10/38.5/1.5 mol %) in PBS were prepared as described above. TNS was prepared as a 300 uM stock solution in distilled water. LNP formulations were diluted to 0.1 mg/ml total lipid in 3 mL of buffered solutions containing 50 mM sodium citrate, 50 mM sodium phosphate, 50 mM sodium borate, and 30 mM sodium chloride where the pH ranged from 3 to 9. An aliquot of the TNS solution was added to give a final concentration of 0.1 mg/ml and following vortex mixing fluorescence intensity was measured at room temperature in a Molecular Devices Spectramax iD3 spectrometer using excitation and mission wavelengths of 325 nm and 435 nm. A sigmoidal best fit analysis was applied to the fluorescence data and the pKa value was measured as the pH giving rise to half-maximal fluorescent intensity.

Compound | polydispersity [1] | size nm [1] [nm] | Encapsulation Efficiency [2] [%] | Apparant Pka [4] | Expression at 6 h (μg/ml) [3]
CCCCCCCCC(CCCCCC)COC(=O)CCCCCC(CCCCCC(=O)OCC(CCCCCC)CCCCCCCC)CN(C)CCO (stereo not drawn) [Compound 14] | 0.172 | 60.13 | 94.9 | 9.356 | C (≥0.1 and <1)
CCCCCCCCC(CCCCCC)COC(=O)CCCCCC(CCCCCC(=O)OCC(CCCCCC)CCCCCCCC)CN(CCO)C1CCC1 (stereo not drawn) [Compound 15] | 0.313 | 51.17 | 89.8 | 9.21 | D (<0.1)
CCCCCCCCC(CCCCCC)COC(=O)CCCCCC(CCCCCC(=O)OCC(CCCCCC)CCCCCCCC)CN(CC)CCO (stereo not drawn) [Compound 16] | 0.225 | 54.69 | 98.87 | 4.403 | D (<0.1)
CCCCCCCCC(CCCCCC)COC(=O)CCCCCC(CCCCCC(=O)OCC(CCCCCC)CCCCCCCC)CCCN(C)CCO (stereo not drawn) [Compound 18] | 0.15 | 71.85 | 100.16 | 6.327 | C (≥0.1 and <1)
CCCCCCCCC(CCCCCC)CC(=O)OCCCCCN(CCCCCOC(=O)CC(CCCCCC)CCCCCCCC)CCN(CCO)C1CCC1 (stereo not drawn) [Compound 20] | 0.103 | 76.79 | 98.1 | 6.252 | A (≥2)
CCCCCCCCC(CCCCCC)COC(=O)CCCCCN(CCCCCC(=O)OCC(CCCCCC)CCCCCCCC)CCN(CCO)C1CCC(O)CC1 (stereo not drawn) [Compound 21] | 0.077 | 75.26 | 100.6 | 7.652 | D (<0.1)
CCCCCCCCC(CCCCCC)COC(=O)CCCCCN(CCCCCC(=O)OCC(CCCCCC)CCCCCCCC)CCN(CCO)C1CC(O)C1 (stereo not drawn) [Compound 22] | 0.081 | 71.2 | 98.3 | 6.884 | D (<0.1)
CCCCCCCCC(CCCCCC)CC(=O)COCCCCN(CCCCCOC(=O)CC(CCCCCC)CCCCCCCC)CCN(CCO)C1CC1 (stereo not drawn) [Compound 24] | 0.077 | 64.96 | 95.4 | 6.087 | C (≥0.1 and <1)
CCCCCCCCC(CCCCCC)CC(=O)COCCCCN(CCCCCOC(=O)CC(CCCCCC)CCCCCCCC)CCN(CCO)C1CCCC1 (stereo not drawn) [Compound 25] | 0.032 | 74.3 | 96.7 | 6.334 | A (≥2)
CCCCCCCCC(CCCCCC)CC(=O)COCCCCN(CCCCCOC(=O)CC(CCCCCC)CCCCCCCC)CCN(CCO)C1CCCCCC1 (stereo not drawn) [Compound 27] | 0.133 | 58.44 | 96.7 | 6.153 | C (≥0.1 and <1)
CCCCCCCCC(CCCCCC)COC(=O)CCCCCN(CCCCCC(=O)OCC(CCCCCC)CCCCCCCC)CCN(CCCO)C1CCC1 (stereo not drawn) [Compound 28] | 0.002 | 79.82 | 96.5 | 6.529 | A (≥2)
CCCCCCCCC(CCCCCC)COC(=O)CCCCCN(CCCCCC(=O)OCC(CCCCCC)CCCCCCCC)CCN(CCCCO)C1CCC1 (stereo not drawn) [Compound 29] | 0.078 | 85.17 | 97.2 | 6.477 | A (≥2)
CCCCCCCCC(CCCCCC)COC(=O)CCCCCN(CCCCCC(=O)OCC(CCCCCC)CCCCCCCC)CCN(CCCCCCCCO)C1CCC1 (stereo not drawn) [Compound 31] | 0.076 | 71.64 | 92.4 | 5.822 | C (≥0.1 and <1)
CCCCCCCCC(CCCCCC)COC(=O)CCCCCN(CCCCCC(=O)OCC(CCCCCC)CCCCCCCC)CCN(CC(C)O)C1CCC1 (stereo not drawn) [Compound 32] | 0.039 | 77.76 | 94.3 | 5.941 | C (≥0.1 and <1)
CCCCCCCCC(CCCCCC)COC(=O)CCCCCN(CCCCCC(=O)OCC(CCCCCC)CCCCCCCC)CCN(CC(O)CCCC)C1CCC1 (stereo not drawn) [Compound 33] | 0.091 | 62.2 | 94.5 | 5.315 | D (<0.1)

Second part, led by results:

polydispersity [1] | size nm [1] [nm] | Encapsulation Efficiency [2] [%] | Apparant Pka [4] | Compound | Expression at 6 h (μg/ml) [3]
0.095 | 63.32 | 96.1 | 5.29 | CCCCCCCCC(O)CN(CCN(CCCCCC(=O)OCC(CCCCCC)CCCCCCCC)CCCCCC(=O)OCC(CCCCCC)CCCCCCCC)C1CCC1 (stereo not drawn) [Compound 34] | D (<0.1)
0.086 | 60.58 | 94.8 | 5.945 | CCCCCCCCC(CCCCCC)COC(=O)CCCCCN(CCCCCC(=O)OCC(CCCCCC)CCCCCCCC)CCN(CCO)C1CCC1 (stereo not drawn) [Compound 35] | C (≥0.1 and <1)
0.065 | 70.36 | 98.3 | 5.907 | CCCCCCCCC(CCCCCC)COC(=O)CCCCN(CCCCC(=O)OCC(CCCCCC)CCCCCCCC)CCN(CCO)C1CCC1 (stereo not drawn) [Compound 36] | A (≥2)
0.034 | 84.26 | 97.0 | 6.205 | CCCCCCCCC(CCCCCC)COC(=O)CCCCCCN(CCCCCCC(=O)OCC(CCCCCC)CCCCCCCC)CCN(CCO)C1CCC1 (stereo not drawn) [Compound 37] | A (≥2)
0.167 | 65.94 | 98.7 | 6.172 | CCCCCCCCC(CCCCCC)C(C)OC(=O)CCCCCN(CCCCCC(=O)OC(C)C(CCCCCC)CCCCCCCC)CCN(CCO)C1CCC1 (stereo not drawn) [Compound 38] | C (≥0.1 and <1)
0.043 | 64.4 | 98.8 | 6.061 | CCCCCCCCC(CCCCCC)C(CC)OC(=O)CCCCCN(CCCCCC(=O)OC(CC)C(CCCCCC)CCCCCCCC)CCN(CCO)C1CCC1 (stereo not drawn) [Compound 39] | C (≥0.1 and <1)
0.054 | 64.04 | 97.5 | 5.93 | CCCCCCCCCCC(CCCCCC)COC(=O)CCCN(CCCC(=O)OCC(CCCCCC)CCCCCCCCCC)CCN(CCO)C1CCC1 (stereo not drawn) [Compound 41] | C (≥0.1 and <1)
0.065 | 65.63 | 96.4 | 6.196 | CCCCCCCCCCC(CCCCCC)COC(=O)CCCCN(CCCCC(=O)OCC(CCCCCC)CCCCCCCCCC)CCN(CCO)C1CCC1 (stereo not drawn) [Compound 42] | C (≥0.1 and <1)
0.063 | 83.85 | 97.5 | 6.049 | CCCCCCCCC(CCCCCC)C(=O)OCCCCCCCCCN(CCCCCCCCCOC(=O)C(CCCCCC)CCCCCCCC)CCN(CCO)C1CCC1 (stereo not drawn) [Compound 44] | B (≥1 and <2)
0.073 | 110.4 | 93.8 | 6.307 | CCCCCC/C=C\COC(=O)CCCCCN(CCCC(=O)OC(CCCCCCC)CCCCCCC)CCN(CCO)C1CCC1 [Compound 46] | C (≥0.1 and <1)
0.065 | 72.52 | 91.80 | 6.347 | CCCCCCC(CCCCCC)COC(=O)CCCCCN(CCCCCC(=O)OCC(CCCCCC)CCCCCC)CCN(CCO)C1CCC1 [Compound 48] | A (≥2)
0.075 | 65.13 | 94.1 | 6.249 | CCCCCCCC(CCCCCCC)COC(=O)CCCCCN(CCCCCC(=O)OCC(CCCCCCC)CCCCCCC)CCN(CCO)C1CCC1 [Compound 49] | A (≥2)
